These results are taken from patent US9492437B2, “Otamixaban for treatment of elderly and renal impaired non-ST elevation myocardial infarction patients” (SANOFI, priority 2009, dated 2016).

Series [1] deals with patients with Unstable angina/Non ST segment Elevation Myocardial infarction. The following applies: in vivo. The method, then:
The following results are based on a randomized, double-blind triple-dummy trial to compare otamixaban to Unfractionated Heparin+eptifibatide, in patients with Unstable angina/Non ST segment Elevation Myocardial infarction scheduled to undergo an early invasive strategy.
Otamixaban arm: (Bol) 0.080 mg/Kg (I) 0.035 mg/Kg/h or 0.070 mg/Kg/h or 0.105 mg/Kg/h or 0.175 mg/Kg/h
UFH: 60 IU/Kg as IV bolus ([…]) followed by an IV infusion of 12 U/Kg/h (max 1000 IU/h) to maintain a PTT at 1.5 to 2.0 times control and at the time of the PCI additional boluses needed if the ACT is not in the range of 200-250 seconds. NB: In order for the study to be blinded, all aPTTs and ACTs performed in order to adjust Drug B (UFH/placebo) dosing will be performed using an encrypted Hemochron Signature Elite machine (or as a back-up, a local device with a third-party unblinded healthcare professional).
Eptifibatide: a single bolus of 180 mcg/kg followed by an infusion of 2 mcg/kg/min. In patients with CrCl<50 mL/min the infusion rate will be decreased to 1 mcg/kg/min.
Safety: • Non-CABG TIMI significant (Major+Minor) bleeding adjudicated by a blinded Clinical Events Adjudication Committee (CEAC) at Day 7. • Non-CABG TIMI Major bleeding adjudicated by a blinded Clinical Events Adjudication Committee (CEAC) at Day 7. • CABG-related bleeding adjudicated by a blinded Clinical Events Adjudication Committee (CEAC) at Day 7. • TIMI Major Bleeding (Non CABG+CABG) adjudicated by a blinded Clinical Events Adjudication Committee (CEAC) at Day 7. • Adjudicated TIMI Minor bleedings at Day 7 • Adjudicated Thrombotic and non-thrombotic procedural complications during the index PCI (including abrupt or threatened closure, new intracoronary thrombus, side branch closure, distal embolization, noreflow, thrombus in catheter or adherent to guidewire, coronary dissection with decreased flow, difficulty in reaching or crossing lesion, unplanned stent use, suboptimal results, coronary perforation, tamponade). All the above events will be adjudicated by a blinded Independent Adjudication Committee.

Series [2] in a line: subgroup pharmacokinetic analysis (concentration of otamixaban). The class given is in vivo, human. The following applies: dose 4 (0.140 mg/Kg/h).
Series [3] deals with free factor Xa (Homo sapiens, UniProt P00742). The following applies: cited from earlier work.
For series [4], the system named is thrombosis. The following applies: rodent; cited from earlier work.
In series [5] the test system is thrombosis. The following applies: porcine; cited from earlier work.
In series [6] the target is T1, factor Xa (Homo sapiens, UniProt P00742).
T1 construct: host or cells: patients (endogenous enzyme)
The following applies: patients with stable coronary artery disease taking usual comedication, some with mild renal impairment; cited from earlier work.

For series [7], the system named is acute coronary syndrome. The following applies: cited from earlier work.

Molecules are shown by their SMILES. Like-named read-outs stand apart in the source and are kept apart here.

Chain of free factor Xa (P00742 235-488 limits assumed): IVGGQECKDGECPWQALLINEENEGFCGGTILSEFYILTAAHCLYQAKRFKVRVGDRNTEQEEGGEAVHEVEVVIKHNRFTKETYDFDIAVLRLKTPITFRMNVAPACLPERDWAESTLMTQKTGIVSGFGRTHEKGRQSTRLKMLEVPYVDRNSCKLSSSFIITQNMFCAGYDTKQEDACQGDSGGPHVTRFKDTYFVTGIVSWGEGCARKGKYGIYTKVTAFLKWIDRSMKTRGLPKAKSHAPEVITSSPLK
Chain of free factor Xa (P00742 41-179 limits assumed): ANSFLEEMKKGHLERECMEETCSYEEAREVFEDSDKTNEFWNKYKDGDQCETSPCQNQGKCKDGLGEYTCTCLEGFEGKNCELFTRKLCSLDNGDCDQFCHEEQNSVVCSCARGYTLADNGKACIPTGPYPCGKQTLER
T1 sequence (P00742 235-488 limits assumed): as the sequence (P00742 235-488 limits assumed) above
T1 sequence (P00742 41-179 partner limits assumed): as the sequence (P00742 41-179 limits assumed) above

With `COC(=O)C(Cc1cccc(C(=N)N)c1)[C@@H](C)NC(=O)c1ccc(-c2cc[n+]([O-])cc2)cc1` (mixture of isomers) [Otamixaban, (2R,3R)-2-(3-Carbamimidoyl-benzyl)-3-[4-(1-oxy-pyridin-4-yl)benzoylamino]-butyric acid methyl ester], the “bleeding rate among subgroups (age, baseline creatinine clearance, body weight)” value in series [1] (human) is “did not show any increase of the bleeding rate”. Also, in series [1] (0.105 mg/kg), the “rates of TIMI major as compared to UFH+eptifibatide” value is recorded as “numerically higher”, the “rates of TIMI minimal as compared to UFH+eptifibatide” value was “numerically higher” and the “rates of TIMI minor (for patients without TIMI major) as compared to UFH+eptifibatide” value was “lower”. For the same compound, the TIMI significant bleeding entry in series [1] (0.175 mg/kg) is given as “excessive”. The “concentration of otamixaban in patients with renal impairment and in elderly patients” value in series [2] was “higher concentration”. Also, in series [3], the “inhibition of free factor Xa” value was “inhibited”. Further, in series [4], the “efficacy in models of thrombosis” value was “highly efficacious”. The “efficacy in models of thrombosis” value in series [5] is “highly efficacious”. In series [6], the “factor Xa inhibition in patients” value is given as “dose-dependent, rapid direct factor Xa inhibition”. Further, the “efficacy, safety and tolerability in humans” value in series [7] was “efficacious, safe and well tolerated”.
